{"source": "patent US20260226060A1", "about": "“SALTS AND CRYSTALLINE FORMS OF COMPOUND A, METHODS OF PREPARATION, AND USES THEREOF” (SHENZHEN NEWDEL BIOTECH CO., LTD., priority 2023, published 2026)", "type_in_all_cases": "physicochemical", "key": {"[1]": {"assay": "Short-term physical stability of anhydrous crystal forms (40° C./75% RH, open, 1 day; XRPD)", "from_the_text": "In addition to the mesylate crystalline form I, the other anhydrous crystalline forms were stable under high humidity conditions."}, "[2]": {"assay": "Solid state stability at 60° C. (closed) and 40° C./75% RH (open), XRPD and HPLC purity", "method": "(closed) and 40° C./75 RH (open) for 14 days, XRPD analysis and purity analysis were performed at various points of time, and solid-state stability was evaluated.\n(§1) HPLC analysis was performed by using an Agilent HPLC 1260 series instrument and the HPLC methods used for solubility and stability determinations were shown in Tables 33 and 34, respectively."}, "[3]": {"assay": "IC analysis of residual solid of phosphate crystalline form I (PO4 content, dissociation)", "method": "IC analysis of the salts was performed by using a Thermo ICS-6000 instrument."}, "[4]": {"assay": "Solubility analysis in biological solvents (SGF, FaSSIF, FeSSIF) and water, with pH and XRPD of residual solid", "conditions": "for Solubility: 37° C.", "method": "as §1"}, "[5]": {"assay": "Dynamic vapor sorption (DVS) hygroscopicity", "method": "The water vapor sorption/desorption data of the samples were collected on a dynamic vapor sorption instrument (proUmid GmbH & Co. KG, Germany). Approximately 50-70 mg of sample was placed in a sample pan previously tared and the weight of the sample was measured accurately."}}}
{"smiles": "Cc1c(C#Cc2cnc3ccc(N4CCC(O)CC4)nn23)cccc1C(=O)Nc1cc(Cl)cc(C(F)(F)F)c1", "note": "[Phosphate crystalline form I]", "values": [{"measurement": "XPRD Results after short-term physical stability", "setting": "[1]", "result": "unchanged"}, {"measurement": "Purity in stability evaluation", "setting": "[2]; 0 d", "result": 98.78, "unit": "Area %"}, {"measurement": "Solid state stability-14 days", "setting": "[2]; 60° C./Closed and 40° C./75% RH (Open), 14 days", "result": "physically and chemically stable"}, {"measurement": "Purity in stability evaluation", "setting": "[2]; 7 d-40° C./75% RH", "result": 98.78, "unit": "Area %"}, {"measurement": "XRPD in stability evaluation", "setting": "[2]; 7 d-40° C./75% RH", "result": "unchanged"}, {"measurement": "Purity in stability evaluation", "setting": "[2]; 7 d-60° C./capped", "result": 98.78, "unit": "Area %"}, {"measurement": "XRPD in stability evaluation", "setting": "[2]; 7 d-60° C./capped", "result": "unchanged"}, {"measurement": "Purity in stability evaluation", "setting": "[2]; 14 d-40° C./75% RH", "result": 98.78, "unit": "Area %"}, {"measurement": "XRPD in stability evaluation", "setting": "[2]; 14 d-40° C./75% RH", "result": "unchanged"}, {"measurement": "Purity in stability evaluation", "setting": "[2]; 14 d-60° C./capped", "result": 98.78, "unit": "Area %"}, {"measurement": "XRPD in stability evaluation", "setting": "[2]; 14 d-60° C./capped", "result": "unchanged"}, {"measurement": "dissociation of salt in solubility media (IC of residual solids)", "setting": "[3]; FaSSIF and FeSSIF", "result": "dissociated to free base"}, {"measurement": "Dissociation degree", "setting": "[3]; FaSSIF, 0.5 h", "result": 91, "unit": "%"}, {"measurement": "PO4^3− in residual solid", "setting": "[3]; FaSSIF, 0.5 h", "result": 0.1, "unit": "eq."}, {"measurement": "XPRD Results Dry sample of residual solid", "setting": "[3]; FaSSIF, 0.5 h", "result": "Amorphous"}, {"measurement": "XPRD Results Wet sample of residual solid", "setting": "[3]; FaSSIF, 0.5 h", "result": "Form 1"}, {"measurement": "Dissociation degree", "setting": "[3]; FaSSIF, 2 h", "result": 97, "unit": "%"}, {"measurement": "PO4^3− in residual solid", "setting": "[3]; FaSSIF, 2 h", "result": 0.03, "unit": "eq."}, {"measurement": "XPRD Results Dry sample of residual solid", "setting": "[3]; FaSSIF, 2 h", "result": "Amorphous"}, {"measurement": "XPRD Results Wet sample of residual solid", "setting": "[3]; FaSSIF, 2 h", "result": "Form 1"}, {"measurement": "Dissociation degree", "setting": "[3]; FaSSIF, 24 h", "result": ">99", "unit": "%"}, {"measurement": "PO4^3− in residual solid", "setting": "[3]; FaSSIF, 24 h", "result": "<0.006", "unit": "eq."}, {"measurement": "XPRD Results Dry sample of residual solid", "setting": "[3]; FaSSIF, 24 h", "result": "Form 3"}, {"measurement": "XPRD Results Wet sample of residual solid", "setting": "[3]; FaSSIF, 24 h", "result": "Form 2"}, {"measurement": "Dissociation degree", "setting": "[3]; FeSSIF, 0.5 h", "result": ">99", "unit": "%"}, {"measurement": "PO4^3− in residual solid", "setting": "[3]; FeSSIF, 0.5 h", "result": "<0.006", "unit": "eq."}, {"measurement": "XPRD Results Dry sample of residual solid", "setting": "[3]; FeSSIF, 0.5 h", "result": "Amorphous"}, {"measurement": "XPRD Results Wet sample of residual solid", "setting": "[3]; FeSSIF, 0.5 h", "result": "Form 1"}, {"measurement": "Dissociation degree", "setting": "[3]; FeSSIF, 24 h", "result": 100, "unit": "%"}, {"measurement": "PO4^3− in residual solid", "setting": "[3]; FeSSIF, 24 h", "result": 0, "unit": "eq."}, {"measurement": "XPRD Results Dry sample of residual solid", "setting": "[3]; FeSSIF, 24 h", "result": "Amorphous"}, {"measurement": "XPRD Results Wet sample of residual solid", "setting": "[3]; FeSSIF, 24 h", "result": "Form 1"}, {"measurement": "pH in solubility analysis", "setting": "[4]; FaSSIF (medium pH 6.5), 0.5 h", "result": 5.7}, {"measurement": "pH in solubility analysis", "setting": "[4]; FaSSIF (medium pH 6.5), 2 h", "result": 5.5}, {"measurement": "pH in solubility analysis", "setting": "[4]; FaSSIF (medium pH 6.5), 24 h", "result": 5.5}, {"measurement": "solubility at 24 h", "setting": "[4]; FaSSIF, 37 °C, pH 6.5, fassif, thermodynamic from solid, 24 h, target 5 mg/mL", "result": 22, "unit": "µg/mL"}, {"measurement": "XRPD of residual solid in solubility analysis", "setting": "[4]; FaSSIF, 0.5 h", "result": "Form 1"}, {"measurement": "Solubility", "setting": "[4]; FaSSIF, 0.5 h, target 5 mg/mL", "result": 0.057, "unit": "mg/mL"}, {"measurement": "Solubility", "setting": "[4]; FaSSIF, 0.5 h, target 5 mg/mL, listed as phosphate crystalline form I", "result": 0.057, "unit": "mg/mL"}, {"measurement": "XRPD of residual solid in solubility analysis", "setting": "[4]; FaSSIF, 0.5 h, listed as phosphate crystalline form I", "result": "Newform 1"}, {"measurement": "Solubility", "setting": "[4]; FaSSIF, 2 h, target 5 mg/mL", "result": 0.048, "unit": "mg/mL"}, {"measurement": "Solubility", "setting": "[4]; FaSSIF, 2 h, target 5 mg/mL, listed as phosphate crystalline form I", "result": 0.048, "unit": "mg/mL"}, {"measurement": "XRPD of residual solid in solubility analysis", "setting": "[4]; FaSSIF, 24 h", "result": "Form 2"}, {"measurement": "XRPD of residual solid in solubility analysis", "setting": "[4]; FaSSIF, 24 h, listed as phosphate crystalline form I", "result": "new form 2"}, {"measurement": "pH in solubility analysis", "setting": "[4]; FeSSIF (medium pH 5.0), 0.5 h", "result": 4.9}, {"measurement": "pH in solubility analysis", "setting": "[4]; FeSSIF (medium pH 5.0), 2 h", "result": 4.9}, {"measurement": "pH in solubility analysis", "setting": "[4]; FeSSIF (medium pH 5.0), 24 h", "result": 5.0}, {"measurement": "XRPD of residual solid in solubility analysis", "setting": "[4]; FeSSIF, 0.5 h", "result": "Form 1"}, {"measurement": "Solubility", "setting": "[4]; FeSSIF, 0.5 h, target 5 mg/mL", "result": 1.029, "unit": "mg/mL"}, {"measurement": "Solubility", "setting": "[4]; FeSSIF, 0.5 h, target 5 mg/mL, listed as phosphate crystalline form I", "result": 1.029, "unit": "mg/mL"}, {"measurement": "XRPD of residual solid in solubility analysis", "setting": "[4]; FeSSIF, 0.5 h, listed as phosphate crystalline form I", "result": "Newform 1"}, {"measurement": "Solubility", "setting": "[4]; FeSSIF, 2 h, target 5 mg/mL", "result": 1.175, "unit": "mg/mL"}, {"measurement": "Solubility", "setting": "[4]; FeSSIF, 2 h, target 5 mg/mL, listed as phosphate crystalline form I", "result": 1.175, "unit": "mg/mL"}, {"measurement": "XRPD of residual solid in solubility analysis", "setting": "[4]; FeSSIF, 24 h", "result": "Form 1"}, {"measurement": "Solubility", "setting": "[4]; FeSSIF, 24 h, target 5 mg/mL", "result": 1.948, "unit": "mg/mL"}, {"measurement": "Solubility", "setting": "[4]; FeSSIF, 24 h, target 5 mg/mL, listed as phosphate crystalline form I", "result": 1.948, "unit": "mg/mL"}, {"measurement": "pH in solubility analysis", "setting": "[4]; SGF (medium pH 1.2), 0.5 h", "result": 1.2}, {"measurement": "pH in solubility analysis", "setting": "[4]; SGF (medium pH 1.2), 2 h", "result": 1.4}, {"measurement": "pH in solubility analysis", "setting": "[4]; SGF (medium pH 1.2), 24 h", "result": 1.2}, {"measurement": "Solubility", "setting": "[4]; SGF, 0.5 h, target 5 mg/mL", "result": "<LOD"}, {"measurement": "Solubility", "setting": "[4]; SGF, 0.5 h, target 5 mg/mL, listed as phosphate crystalline form I", "result": "<LOD/<LOD/"}, {"measurement": "Solubility", "setting": "[4]; SGF, 2 h, target 5 mg/mL", "result": "<LOD"}, {"measurement": "Solubility", "setting": "[4]; SGF, 2 h, target 5 mg/mL, listed as phosphate crystalline form I", "result": "<LOD/<LOD/"}, {"measurement": "XRPD of residual solid in solubility analysis", "setting": "[4]; SGF, 24 h", "result": "amorphous"}, {"measurement": "Solubility", "setting": "[4]; SGF, 24 h, target 5 mg/mL", "result": "<LOD"}, {"measurement": "XRPD of residual solid in solubility analysis", "setting": "[4]; SGF, after 2 h", "result": "amorphous"}, {"measurement": "pH in solubility analysis", "setting": "[4]; water (medium pH 6.6), 0.5 h", "result": 2.8}, {"measurement": "pH in solubility analysis", "setting": "[4]; water (medium pH 6.6), 2 h", "result": 2.7}, {"measurement": "pH in solubility analysis", "setting": "[4]; water (medium pH 6.6), 24 h", "result": 2.6}, {"measurement": "Solubility", "setting": "[4]; water, 0.5 h, target 5 mg/mL", "result": "<LOD"}, {"measurement": "Solubility", "setting": "[4]; water, 0.5 h, target 5 mg/mL, listed as phosphate crystalline form I", "result": "<LOD/<LOD/"}, {"measurement": "Solubility", "setting": "[4]; water, 2 h, target 5 mg/mL", "result": "<LOD"}, {"measurement": "Solubility", "setting": "[4]; water, 2 h, target 5 mg/mL, listed as phosphate crystalline form I", "result": "<LOD/<LOD/"}, {"measurement": "Solubility", "setting": "[4]; water, 24 h, target 5 mg/mL", "result": "<LOD"}, {"measurement": "XRPD pattern of the residual solid in water", "setting": "[4]; water, time not stated", "result": "an additional peak at 160 (20)"}, {"measurement": "crystalline form after DVS analysis (XRPD)", "setting": "[5]", "result": "remained unchanged"}, {"measurement": "hygroscopicity (DVS)", "setting": "[5]", "result": "slightly hygroscopic"}, {"measurement": "DVS The weight gains by vapor sorption %", "setting": "[5]; 80% RH", "result": 1.3, "unit": "%"}, {"measurement": "DVS The weight gains by vapor sorption %", "setting": "[5]; 90% RH", "result": 1.6, "unit": "%"}, {"measurement": "DVS The weight gains by vapor sorption %", "setting": "[5]; 90% RH, listed as phosphate crystalline form I", "result": "~1.6", "unit": "%"}]}
